Test results as given in patent publication US20230373985A1 (Origenis Gmbh, priority 2020, published 2023).

Columns and labels:
[1] = target: T1, wt human TYK2, catalytic site (Homo sapiens, UniProt P29597); test: HTRF KinEASE assay, TYK2; type: biochemical; conditions: 1 μM ATP; read-out: IC50, Activity Toward TYK2
T1 construct: wt human TYK2, catalytic site; purchased SignalChem
T1 sequence (P29597 897-1176 limits assumed): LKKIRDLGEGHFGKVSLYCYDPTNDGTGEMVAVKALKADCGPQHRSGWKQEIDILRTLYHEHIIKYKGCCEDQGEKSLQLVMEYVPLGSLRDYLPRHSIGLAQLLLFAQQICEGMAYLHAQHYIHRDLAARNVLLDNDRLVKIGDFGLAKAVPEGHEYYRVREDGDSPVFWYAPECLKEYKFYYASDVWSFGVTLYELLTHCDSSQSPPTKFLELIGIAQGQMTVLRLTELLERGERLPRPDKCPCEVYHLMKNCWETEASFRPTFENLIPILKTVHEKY
Protocol: (§1) Basic protocol for HTRF KinEASE assay (Cisbio/FRA) inhibitor studies involved two steps: • Enzymatic step: Addition of 4 μL of test compound in corresponding DMSO dilutions, 4 μL of kinase/substrate mixture, 2 μL of ATP into 384 well small volume plates. Incubation for at least 30 minutes at room temperature. • Detection step: Addition of 5 μL antibody and 5 μL streptavidin-XL665, read plate after 60 minutes. Data analysis of emission ratios according KinEASE assay protocol.
(§2) Kinase and assay components were adjusted to final concentrations according to kit protocol. For TYK2: 2 nM wt human TYK2, catalytic site (SignalChem/CAN), 1 μM HTRF KinEASE-TK Substrate-biotin, 1 μM ATP in 1× Kinase Buffer. For JAK1: 4 nM wt human JAK1, catalytic site (ThermoFisher/USA), 1 μM HTRF KinEASE-TK Substrate-biotin, 2.5 μM ATP in 1× Kinase Buffer. For JAK2: 1 nM wt human JAK2, catalytic site (SignalChem/CAN), 1 μM HTRF KinEASE-TK Substrate-biotin, 100 μM ATP in 1× Kinase Buffer.
as §2

[2] = target: T2, wt human JAK1, catalytic site (Homo sapiens, UniProt P23458); test: HTRF KinEASE assay, JAK1; type: biochemical; conditions: 2.5 μM ATP; read-out: IC50, Activity Toward JAK1
T2 construct: wt human JAK1, catalytic site; purchased ThermoFisher
Protocol: as §1
as §2, with “For JAK1: 4 nM wt human JAK1, catalytic site (ThermoFisher/USA), 1 μM HTRF KinEASE-TK Substrate-biotin, 2.5 μM ATP in 1× Kinase Buffer.” left out
as §2, with “For JAK1: 4 nM wt human JAK1, catalytic site (ThermoFisher/USA), 1 μM HTRF KinEASE-TK Substrate-biotin, 2.5 μM ATP in 1× Kinase Buffer.” left out

T2 sequence (P23458 875-1153 limits assumed): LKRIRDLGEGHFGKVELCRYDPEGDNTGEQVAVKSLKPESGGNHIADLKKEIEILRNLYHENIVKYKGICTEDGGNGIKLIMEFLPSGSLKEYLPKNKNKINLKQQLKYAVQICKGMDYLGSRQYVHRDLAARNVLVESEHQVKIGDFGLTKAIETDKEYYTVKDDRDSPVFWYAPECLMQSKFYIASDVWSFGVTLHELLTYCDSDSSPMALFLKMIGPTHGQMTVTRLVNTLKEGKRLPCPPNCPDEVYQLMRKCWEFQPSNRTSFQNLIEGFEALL

IC50 [1]	IC50 [2]	Compound
10 to 100 nM	100 to 1000 nM	NC(=O)c1nn(-c2c(Cl)cccc2Cl)nc1Nc1ccc(C(=O)N2CCC(F)C2)cn1 (stereo in doubt) [compound 130, (S)-2-(2,6-dichlorophenyl)-5-((5-(3-fluoropyrrolidine-1-carbonyl)pyridin-2-yl)amino)-2H-1,2,3-triazole-4-carboxamide]
10 to 100 nM	100 to 1000 nM	N#Cc1cc(Cl)c(-n2nc(Nc3ccc(C(=O)N4CCC(F)C4)cc3)c(C(N)=O)n2)c(Cl)c1 (stereo in doubt) [compound 148, (R)-2-(2,6-dichloro-4-cyanophenyl)-5-((4-(3-fluoropyrrolidine-1-carbonyl)phenyl)amino)-2H-1,2,3-triazole-4-carboxamide]
	100 to 1000 nM	CS(=O)(=O)n1cc(Nc2nn(-c3c(Cl)cccc3Cl)nc2C(N)=O)cn1 [Compound No. 172, 2-(2,6-dichlorophenyl)-5-((1-(methylsulfonyl)-1H-pyrazol-4-yl)amino)-2H-1,2,3-triazole-4-carboxamide]
10 to 100 nM	100 to 1000 nM	CC(C)(C)NC(=O)c1ccc(Nc2cn(-c3c(Cl)cccc3Cl)nc2C(N)=O)cc1F [compound 28, 4-((4-(tert-butylcarbamoyl)-3-fluorophenyl)amino)-1-(2,6-dichlorophenyl)-1H-pyrazole-3-carboxamide]
	100 to 1000 nM	NC(=O)c1nn(-c2c(Cl)cccc2Cl)cc1Nc1ccc(-n2ccc(Cl)n2)cc1 [compound 76, 4-((4-(3-chloro-1H-pyrazol-1-yl)phenyl)amino)-1-(2,6-dichlorophenyl)-1H-pyrazole-3-carboxamide]
	100 to 1000 nM	CCc1nc(C(F)(F)F)nn1-c1ccc(Nc2nn(-c3c(Cl)cccc3Cl)nc2C(N)=O)cc1 [compound 121]
	10 to 100 nM	NC(=O)c1nn(-c2c(Cl)cccc2Cl)nc1Nc1ccc(-n2nncc2C(F)(F)F)cc1 [compound 155, 2-(2,6-dichlorophenyl)-5-((4-(5-(trifluoromethyl)-1H-1,2,3-triazol-1-yl)phenyl)amino)-2H-1,2,3-triazole-4-carboxamide]
	100 to 1000 nM	Cc1cn(-c2ccc(Nc3cn(-c4c(Cl)cccc4Cl)nc3C(N)=O)cc2)nc1C [compound 217, 1-(2,6-dichlorophenyl)-4-((4-(3,4-dimethyl-1H-pyrazol-1-yl)phenyl)amino)-1H-pyrazole-3-carboxamide]
	100 to 1000 nM	CCc1c(C)nn(-c2ccc(Nc3cn(-c4c(Cl)cccc4Cl)nc3C(N)=O)cc2)c1C [compound 222, 1-(2,6-dichlorophenyl)-4-((4-(4-ethyl-3,5-dimethyl-1H-pyrazol-1-yl)phenyl)amino)-1H-pyrazole-3-carboxamide]
	100 to 1000 nM	CCc1cccnc1-c1ccc(Nc2cn(-c3c(Cl)cccc3Cl)nc2C(N)=O)cc1 [compound 234, 1-(2,6-dichlorophenyl)-4-((4-(3-ethylpyridin-2-yl)phenyl)amino)-1H-pyrazole-3-carboxamide]
< 10 nM		NC(=O)c1nn(-c2c(Cl)cccc2Cl)cc1Nc1ccc(-c2nc(C(F)(F)F)cn2C2COC2)cc1 [compound 301, 1-(2,6-dichlorophenyl)-4-((4-(1-(oxetan-3-yl)-4-(trifluoromethyl)-1H-imidazol-2-yl)phenyl)amino)-1H-pyrazole-3-carboxamide]
10 to 100 nM		CN(C)CCn1cc(C(F)(F)F)nc1-c1ccc(Nc2cn(-c3c(Cl)cccc3Cl)nc2C(N)=O)cc1 [compound 306, 1-(2,6-dichlorophenyl)-4-((4-(1-(2-(dimethylamino)ethyl)-4-(trifluoromethyl)-1H-imidazol-2-yl)phenyl)amino)-1H-pyrazole-3-carboxamide]
100 to 1000 nM		CCCn1cc(C(F)(F)F)nc1-c1ccc(Nc2cn(-c3c(Cl)cccc3Cl)nc2C(N)=O)cc1 [compound 311, 1-(2,6-dichlorophenyl)-4-((4-(1-propyl-4-(trifluoromethyl)-1H-imidazol-2-yl)phenyl)amino)-1H-pyrazole-3-carboxamide]
100 to 1000 nM		COCc1nc(C(F)(F)F)nn1-c1ccc(Nc2cn(-c3c(Cl)cccc3Cl)nc2C(N)=O)cn1 [compound 328, 1-(2,6-dichlorophenyl)-4-((6-(5-(methoxymethyl)-3-(trifluoromethyl)-1H-1,2,4-triazol-1-yl)pyridin-3-yl)amino)-1H-pyrazole-3-carboxamide]
100 to 1000 nM		CCc1nc(C(F)(F)F)nn1-c1ccc(Nc2cn(-c3c(Cl)cccc3Cl)nc2C(N)=O)cn1 [compound 329, 1-(2,6-dichlorophenyl)-4-((6-(5-ethyl-3-(trifluoromethyl)-1H-1,2,4-triazol-1-yl)pyridin-3-yl)amino)-1H-pyrazole-3-carboxamide]
100 to 1000 nM		NC(=O)c1nn(-c2c(Cl)cccc2Cl)cc1Nc1ccc(-n2cncn2)nc1 [compound 337, 4-((6-(1H-1,2,4-triazol-1-yl)pyridin-3-yl)amino)-1-(2,6-dichlorophenyl)-1H-pyrazole-3-carboxamide]
100 to 1000 nM		CCn1cc(C(F)(F)F)nc1-c1ccc(Nc2cn(-c3c(Cl)cccc3Cl)nc2C(N)=O)cn1 [compound 339, 1-(2,6-dichlorophenyl)-4-((6-(1-ethyl-4-(trifluoromethyl)-1H-imidazol-2-yl)pyridin-3-yl)amino)-1H-pyrazole-3-carboxamide]
100 to 1000 nM		CCc1ncnn1-c1ccc(Nc2cn(-c3c(Cl)cccc3Cl)nc2C(N)=O)cn1 [compound 343, 1-(2,6-dichlorophenyl)-4-((6-(5-ethyl-1H-1,2,4-triazol-1-yl)pyridin-3-yl)amino)-1H-pyrazole-3-carboxamide]
100 to 1000 nM		NC(=O)c1nn(-c2c(Cl)cccc2Cl)cc1Nc1ccc(N2CCCC2=O)nc1 [compound 345, 1-(2,6-dichlorophenyl)-4-((6-(2-oxopyrrolidin-1-yl)pyridin-3-yl)amino)-1H-pyrazole-3-carboxamide]
100 to 1000 nM		Cc1cc(Nc2cn(-c3c(Cl)cccc3Cl)nc2C(N)=O)cnc1-n1cccn1 [compound 346, 1-(2,6-dichlorophenyl)-4-((5-methyl-6-(1H-pyrazol-1-yl)pyridin-3-yl)amino)-1H-pyrazole-3-carboxamide]
100 to 1000 nM		NC(=O)c1nn(-c2c(Cl)cccc2Cl)cc1Nc1ccc(C(=O)N2CC[C@H](N)C2)cn1 [compound 368, (S)-4-((5-(3-aminopyrrolidine-1-carbonyl)pyridin-2-yl)amino)-1-(2,6-dichlorophenyl)-1H-pyrazole-3-carboxamide]
100 to 1000 nM		NC(=O)c1nn(-c2c(Cl)cccc2Cl)cc1Nc1ccc(C(=O)N2CC(F)(F)C(F)(F)C2)cn1 [compound 369, 1-(2,6-dichlorophenyl)-4-((5-(3,3,4,4-tetrafluoropyrrolidine-1-carbonyl)pyridin-2-yl)amino)-1H-pyrazole-3-carboxamide]
100 to 1000 nM		CCOc1cccc(Cl)c1-n1cc(Nc2cnn(C)c2)c(C(N)=O)n1 [compound 372, 1-(2-chloro-6-ethoxyphenyl)-4-((1-methyl-1H-pyrazol-4-yl)amino)-1H-pyrazole-3-carboxamide]
100 to 1000 nM		Cc1cccc2[nH]nc(-c3ccc(Nc4cn(-c5c(Cl)cccc5Cl)nc4C(N)=O)cn3)c12 [compound 427, 1-(2,6-dichlorophenyl)-4-((6-(4-methyl-3H-indazol-3-ylidene)-1,6-dihydropyridin-3-yl)amino)-1H-pyrazole-3-carboxamide]
100 to 1000 nM		Cn1nnc(-c2ccc(Nc3cn(-c4c(Cl)cccc4Cl)nc3C(N)=O)nc2)n1 [compound 434, 1-(2,6-dichlorophenyl)-4-((5-(2-methyl-2H-tetrazol-5-yl)pyridin-2-yl)amino)-1H-pyrazole-3-carboxamide]
	100 to 1000 nM	NC(=O)c1nn(-c2c(Cl)cccc2Cl)cc1Nc1ccc(-n2nncc2C(F)(F)F)cn1 [compound 437, 1-(2,6-dichlorophenyl)-4-((5-(5-(trifluoromethyl)-1H-1,2,3-triazol-1-yl)pyridin-2-yl)amino)-1H-pyrazole-3-carboxamide]
100 to 1000 nM		CC1(C)CN(C(=O)c2ccc(Nc3cn(-c4c(Cl)cccc4Cl)nc3C(N)=O)nc2)C1 [compound 465, 1-(2,6-dichlorophenyl)-4-((5-(3,3-dimethylazetidine-1-carbonyl)pyridin-2-yl)amino)-1H-pyrazole-3-carboxamide]
10 to 100 nM		Cc1cccc2nnc(-c3ccc(Nc4cn(-c5c(Cl)cc(F)cc5Cl)nc4C(N)=O)cn3)n12 [compound 477, 1-(2,6-dichloro-4-fluorophenyl)-4-((6-(5-methyl-[1,2,4]triazolo[4,3-a]pyridin-3-yl)pyridin-3-yl)amino)-1H-pyrazole-3-carboxamide]
